Data published in patent publication US11498923B2 (Merck Sharp & Dohme Corp., priority 2017, dated 2022).

target: T1, human A2a receptor (Homo sapiens, UniProt P29274); experiment: A2a receptor competition binding assay (Scintillation Proximity); details: membranes from HEK293 cells expressing human A2a receptor; 0.5 nM tritiated ligand; Cheng-Prusoff; read-out: A2a Ki
T1 construct: purchased Perkin-Elmer RBHA2AM400UA; host or cells: HEK293 cells, used as a membrane preparation
Summary of the method: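 Ki values were obtained with the Cheng-Prusoff equation from competition curves against 0.5 nM tritiated antagonist, scintillation proximity counting after 1 h room-temperature incubation. Receptor came from HEK293 membranes pretreated with adenosine deaminase; compound final range 3000–0.15 nM, buffer Ca/Mg-free PBS with 10 mM MgCl2.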

T1 sequence (P29274 whole entry): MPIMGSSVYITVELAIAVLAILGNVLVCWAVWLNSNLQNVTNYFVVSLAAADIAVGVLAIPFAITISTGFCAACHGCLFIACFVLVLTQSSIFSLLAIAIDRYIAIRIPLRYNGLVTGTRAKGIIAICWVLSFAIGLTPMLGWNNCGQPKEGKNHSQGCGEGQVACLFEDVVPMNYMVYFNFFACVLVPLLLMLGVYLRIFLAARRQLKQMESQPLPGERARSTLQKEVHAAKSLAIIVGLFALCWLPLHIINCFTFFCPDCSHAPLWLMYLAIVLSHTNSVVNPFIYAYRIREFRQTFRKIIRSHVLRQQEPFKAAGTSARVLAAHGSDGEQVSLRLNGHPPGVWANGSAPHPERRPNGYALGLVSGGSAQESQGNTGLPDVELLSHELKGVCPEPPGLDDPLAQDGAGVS

Ki | Compound
6 nM | CC(c1ccc(-c2cccc(Cc3cn4c(N)nc5c(F)cccc5c4n3)c2)cc1)N1CCOCC1 (stereo not drawn) [Ex-75, 7-fluoro-2-((4′-(l-morpholinoethyl)-[1,1′-biphenyl]-3-yl)methyl)imidazo[1,2-c]quinazolin-5-amine]
170 nM | Nc1nc2c(F)cccc2c2nc(C(=O)N3CCC4(CCN(CCc5ccc(F)cc5)C4)C3)cn12 (stereo not drawn) [Ex-281, (5-amino-7-fluoroimidazo[1,2-c]quinazolin-2-yl)(7-(4-fluorophenethyl)-2,7-diazaspiro[4.4]nonan-2-yl)methanone]
4.5 nM | COc1cccc2c1nc(N)n1cc(Cc3ccccc3N3CCOCC3)nc21 [Ex-19, 7-methoxy-2-(2-morpholinobenzyl)imidazo[1,2-c]quinazolin-5-amine]
28 nM | Nc1nc2c(-c3cnoc3)cccc2c2nc(Cc3ccccc3)cn12 [Ex-156, 2-benzyl-7-(isoxazol-4-yl)imidazo[1,2-c]quinazolin-5-amine]
5.1 nM | COCCOc1ccc(N2CCN(c3cccc(CNC(=O)c4cn5c(N)nc6c(F)cccc6c5n4)c3)CC2)cc1 [Ex-254, 5-amino-7-fluoro-N-(3-(4-(4-(2-methoxyethoxy)phenyl)piperazin-1-yl)benzyl)imidazo[1,2-c]quinazoline-2-carboxamide]
11 nM | COc1cccc2c1nc(N)n1cc(CN3Cc4cccnc4C3)nc21 [Ex-122, 2-((5,7-dihydro-6H-pyrrolo[3,4-b]pyridin-6-yl)methyl)-7-methoxyimidazo[1,2-c]quinazolin-5-amine]
66 nM | Nc1nc2c(F)cccc2c2nc(C(=O)N3CCCC4(CCNC4)C3)cn12 (stereo not drawn) [Ex-268, (5-amino-7-fluoroimidazo[1,2-c]quinazolin-2-yl)(2,7-diazaspiro[4.5]decan-7-yl)methanone]
81 nM | COc1cccc2c1nc(N)n1cc(C(=O)N3CCC(F)(F)CC3)nc21 [Ex-168, (5-amino-7-methoxyimidazo[1,2-c]quinazolin-2-yl)(4,4-difluoropiperidin-1-yl)methanone]
11.5 nM | COc1cccc2c1nc(N)n1cc(C(=O)N3CCCC(C)C3)nc21 (stereo not drawn) [Ex-170, (5-amino-7-methoxyimidazo[1,2-c]quinazolin-2-yl)(3-methylpiperidin-1-yl)methanone]
130 nM | Nc1nc2c(F)cccc2c2nc(CNCc3ccc(F)cc3)cn12 [Ex-142]
61.1 nM | COc1cccc2c1nc(N)n1cc(C(=O)N3CCC4(CCCO4)CC3)nc21 [Ex-230, (5-amino-7-methoxyimidazo[1,2-c]quinazolin-2-yl)(1-oxa-8-azaspiro[4.5]decan-8-yl)methanone]
160 nM | Nc1nc2c(F)cccc2c2nc(CN3CCN(Cc4ccccc4)CC3)cn12 [Ex-111, 2-((4-benzylpiperazin-1-yl)methyl)-7-fluoroimidazo[1,2-c]quinazolin-5-amine]
31 nM | COc1cccc2c1nc(N)n1cc(C(=O)N3CCCC(=O)CC3)nc21 [Ex-179, 1-(5-amino-7-methoxyimidazo[1,2-c]quinazoline-2-carbonyl)azepan-4-one]
18 nM | COc1cccc2c1nc(N)n1cc(C(=O)N3CCCC(OC)(OC)C3)nc21 [Ex-232, (5-amino-7-methoxyimidazo[1,2-c]quinazolin-2-yl)(3,3-dimethoxypiperidin-1-yl)methanone]
2.1 nM | COc1cccc2c1nc(N)n1cc(Cc3c(Cl)cccc3Cl)nc21 [Ex-23, 2-(2,6-dichlorobenzyl)-7-methoxyimidazo[1,2-c]quinazolin-5-amine]
5.1 nM | N#Cc1cccc(CC(=O)N2CCc3c(Cc4cn5c(N)nc6c(F)cccc6c5n4)cccc3C2)c1 [Ex-55, 3-(2-(5-((5-amino-7-fluoroimidazo[1,2-c]quinazolin-2-yl)methyl)-3,4-dihydroisoquinolin-2(1H)-yl)-2-oxoethyl)benzonitrile]
2.8 nM | COc1cccc2c1nc(N)n1cc(Cc3ccccc3N3CCCCC3)nc21 [Ex-36, 7-methoxy-2-(2-(piperidin-1-yl)benzyl)imidazo[1,2-c]quinazolin-5-amine]

Ki | Compound
6.9 nM | Nc1nc2c(F)cccc2c2nc(Cc3cc(F)ccc3-c3ccnc(N4CCOCC4)c3)cn12 [Ex-83]
120 nM | Nc1nc2c(F)cccc2c2nc(C(=O)N3CCc4cccc(CN5CCN(c6ccc(F)cc6F)CC5)c4C3)cn12 [Ex-247]
152 nM | COc1cccc2c1nc(N)n1cc(C(=O)N3CCN4CCCC[C@@H]4C3)nc21 [Ex-245, (R)-(5-amino-7-methoxyimidazo[1,2-c]quinazolin-2-yl)(octahydro-2H-pyrido[1,2-a]pyrazin-2-yl)methanone]
100 nM | CCN1CCC2(CCN(C(=O)c3cn4c(N)nc5c(F)cccc5c4n3)C2)C1 (stereo not drawn) [Ex-280, (5-amino-7-fluoroimidazo[1,2-c]quinazolin-2-yl)(7-ethyl-2,7-diazaspiro[4.4]nonan-2-yl)methanone]
0.4 nM | COc1cccc2c1nc(N)n1cc(Cc3ccccc3)nc21 [Ex-01, 2-benzyl-7-methoxyimidazo[1,2-c]quinazolin-5-amine]
120 nM | CCN1CCC(Cc2cn3c(N)nc4c(F)cccc4c3n2)CC1 [Ex-307, 2-((1-ethyl-piperidin-4-yl)methyl)-7-fluoro-imidazo[1,2-c]quina-zolin-5-amine]
18 nM | Nc1nc2c(F)cccc2c2nc(CN3Cc4ccc(F)cc4C3)cn12 [Ex-124, 7-fluoro-2-((5-fluoroisoindolin-2-yl)methyl)imidazo[1,2-c]quinazolin-5-amine]
8.4 nM | Nc1nc2c(F)cccc2c2nc(CN3CCc4ccc(CC(=O)Nc5ccccn5)cc4C3)cn12 [Ex-131, 2-(2-((5-amino-7-fluoroimidazo[1,2-c]quinazolin-2-yl)methyl)-1,2,3,4-tetrahydroisoquinolin-7-yl)-N-(pyridin-2-yl)acetamide]
9.1 nM | Nc1nc2c(Br)cccc2c2nc(CNCc3ccccc3)cn12 [Ex-140, 2-((benzylamino)methyl)-7-bromoimidazo[1,2-c]quinazolin-5-amine]
2.1 nM | COc1cccc2c1nc(N)n1cc(C(=O)N3CCC(C)(C)CC3)nc21 [Ex-207, (5-amino-7-methoxyimidazo[1,2-c]quinazolin-2-yl)(4,4-dimethylpiperidin-1-yl)methanone]
9.7 nM | Nc1nc2c(F)cccc2c2nc(Cc3cccc(C(=O)Nc4ccccn4)c3)cn12 [Ex-85, 3-((5-amino-7-fluoroimidazo[1,2-c]quinazolin-2-yl)methyl)-N-(pyridin-2-yl)benzamide]
34 nM | CCCN1CCCC2(CCN(C(=O)c3cn4c(N)nc5c(F)cccc5c4n3)CC2)C1 [Ex-279, (5-amino-7-fluoroimidazo[1,2-c]quinazolin-2-yl)(2-propyl-2,9-diazaspiro[5.5]undecan-9-yl)methanone]
10 nM | COc1cccc2c1nc(N)n1cc(C(=O)N3CCC[C@@H]3C)nc21 [Ex-216, (S)-(5-amino-7-methoxyimidazo[1,2-c]quinazolin-2-yl)(2-methylpyrrolidin-1-yl)methanone]
7.8 nM | COc1cccc2c1nc(N)n1cc(C(=O)N3CCC[C@@H]3C(F)(F)F)nc21 [Ex-217, (R)-(5-amino-7-methoxyimidazo[1,2-c]quinazolin-2-yl)(2-(trifluoromethyl)pyrrolidin-1-yl)methanone]
33 nM | Nc1nc2c(F)cccc2c2nc(COc3ccccc3)cn12 [Ex-146, 7-fluoro-2-(phenoxymethyl)imidazo[1,2-c]quinazolin-5-amine]
2.2 nM | COc1cccc2c1nc(N)n1cc(Cc3ccccc3CN3CCN(c4ccccc4)CC3)nc21 [Ex-67]
